Laboratory results reported in DBAASP.
Values after ≈ are worked out from the molar mass of the structure shown. Values joined by “and” are separate entries in the source; they are usually repeats but may differ in a detail not shown here. Equal values may be shown once.

Key:
Test in all cases: ≥ marks a high value that may be exact or a test limit, other limits are often not marked, values filed in µg/mL are converted to µM
Escherichia coli K88 = system: Escherichia coli K88
[1] = system: Staphylococcus epidermidis ATCC 12228
[2] = system: Escherichia coli CVCC 1515
Escherichia coli UB1005 = system: Escherichia coli UB1005
[3] = system: Salmonella enterica subsp. enterica serovar Typhimurium ATCC 14028
[4] = system: Pseudomonas aeruginosa ATCC 27853
[5] = system: Staphylococcus aureus ATCC 29213
[6] = system: Escherichia coli ATCC 25922
[7] = system: Staphylococcus aureus ATCC 43300
[8] = system: Enterococcus faecalis ATCC 29212
Escherichia coli 078 = system: Escherichia coli 078
[9] = system: Bacillus subtilis CMCC 63501
[10] = system: Salmonella enterica subsp. enterica serovar Pullorum ATCC 7913
[11] = system: Staphylococcus aureus ATCC 25923
Escherichia coli K99 = system: Escherichia coli K99
[12] = system: Bacillus cereus CGMCC 1.932
Acinetobacter baumannii = system: Acinetobacter baumannii
[13] = system: Listeria monocytogenes CGMCC 1.1075
[14] = system: Salmonella typhimurium ATCC 7731
[15] = system: Pseudomonas aeruginosa PAO1
[16] = system: Staphylococcus aureus ATCC 9144
[17] = system: Corynebacterium glutamicum ATCC 13032
Aureobasidium pullulans = system: Aureobasidium pullulans
[18] = system: Candida albicans ATCC 10231
[19] = system: Staphylococcus aureus KCTC 1621
[20] = system: Pseudomonas aeruginosa CCARM 2095
[21] = system: Bacillus subtilis KCTC 3068
[22] = system: Salmonella typhimurium KCTC 1926
[23] = system: Staphylococcus aureus CCARM 3089
[24] = system: Staphylococcus epidermidis KCTC 1917
[25] = system: Enterococcus faecium ATCC 51559
[26] = system: Escherichia coli KCTC 1682
[27] = system: Pseudomonas aeruginosa KCTC 1637
[28] = system: Staphylococcus aureus CCARM 3095
[29] = system: Staphylococcus aureus CCARM 3090
[30] = system: Pseudomonas aeruginosa CCARM 2109

Q: What does the source list for `CC(C)C[C@H](NC(=O)[C@H](CCCCN)NC(=O)[C@H](C)NC(=O)[C@H](C)NC(=O)[C@H](C)NC(=O)[C@H](CCCCN)NC(=O)[C@H](C)NC(=O)[C@H](C)NC(=O)[C@H](C)NC(=O)[C@H](CCCCN)NC(=O)[C@H](Cc1c[nH]c2ccccc12)NC(=O)[C@@H](N)CC(C)C)C(=O)N[C@@H](Cc1c[nH]c2ccccc12)C(N)=O` [LWKAAAKAAAKLW]?
A: MIC (Escherichia coli K88): 4 µM (≈ 5.71 µg/mL); MIC [1]: 8 µM (≈ 11.4 µg/mL); MIC [2]: 8 µM (≈ 11.4 µg/mL); MIC (Escherichia coli UB1005): 8 µM (≈ 11.4 µg/mL); MIC [3]: 32 µM (≈ 45.7 µg/mL); MIC [4]: 8 µM (≈ 11.4 µg/mL); MIC [5]: 8 µM (≈ 11.4 µg/mL); MIC [6]: 4 µM (≈ 5.71 µg/mL)

Q: What does the source list for `C[C@H](NC(=O)[C@H](CCCN=C(N)N)NC(=O)[C@H](Cc1c[nH]c2ccccc12)NC(=O)[C@H](CCCN=C(N)N)NC(=O)[C@H](Cc1c[nH]c2ccccc12)NC(=O)[C@H](Cc1c[nH]c2ccccc12)NC(=O)[C@H](Cc1c[nH]c2ccccc12)NC(=O)[C@H](CCCN=C(N)N)NC(=O)[C@H](Cc1c[nH]c2ccccc12)NC(=O)[C@H](CCCN=C(N)N)NC(=O)[C@@H](N)[C@@H](C)O)C(N)=O` [TRWRWWWRWRA]?
A: MIC [7]: 2 µM (≈ 3.49 µg/mL); MIC [8]: 4 µM (≈ 6.98 µg/mL); MIC (Escherichia coli K88): 2 µM (≈ 3.49 µg/mL); MIC [1]: 1 µM (≈ 1.75 µg/mL); MIC (Escherichia coli 078): 2 µM (≈ 3.49 µg/mL); MIC (Escherichia coli UB1005): 1 µM (≈ 1.75 µg/mL); MIC [9]: 16 µM (≈ 27.9 µg/mL); MIC [10]: 1 µM (≈ 1.75 µg/mL); MIC [3]: 1 µM (≈ 1.75 µg/mL); MIC [11]: 1 µM (≈ 1.75 µg/mL); MIC [4]: 2 µM (≈ 3.49 µg/mL); MIC (Escherichia coli K99): 2 µM (≈ 3.49 µg/mL); MIC [12]: 8 µM (≈ 14 µg/mL); MIC (Acinetobacter baumannii): 2 µM (≈ 3.49 µg/mL); MIC [13]: 1 µM (≈ 1.75 µg/mL); MIC [14]: 2 µM (≈ 3.49 µg/mL); MIC [15]: 16 µM (≈ 27.9 µg/mL)

Q: With `CC(C)[C@H](NC(=O)[C@@H](NC(=O)[C@H](CCCN=C(N)N)NC(=O)[C@H](CCCN=C(N)N)NC(=O)[C@H](Cc1c[nH]c2ccccc12)NC(=O)[C@H](Cc1c[nH]c2ccccc12)NC(=O)CN)[C@@H](C)O)C(=O)N[C@@H](C)C(=O)N[C@@H](CCCCN)C(=O)N[C@@H](C)C(=O)N[C@@H](CCCN=C(N)N)C(=O)N[C@@H](CCCCN)C(N)=O` [GWWRRTVAKARK] as the molecule, how does the MIC [16] read?
A: ≥ 100 µM

Q: And the MIC [17]?
A: 1.6 µM (≈ 2.42 µg/mL)

Q: And the MIC (Aureobasidium pullulans)?
A: ≥ 50 µM

Q: What about the MIC [4] of the same molecule?
A: 6.3 µM (≈ 9.54 µg/mL)

Q: And the MIC [18]?
A: 25 µM (≈ 37.8 µg/mL)

Q: What about the MIC [6] of the same molecule?
A: 12.5 µM (≈ 18.9 µg/mL)

Q: `CC[C@H](C)[C@@H]1NC(=O)[C@H]([C@@H](C)O)NC(=O)[C@H](Cc2cnc[nH]2)NC(=O)[C@H](CCCN=C(N)N)NC(=O)[C@H](C)NC(=O)[C@H](CCCN=C(N)N)NC(=O)[C@H](CC(C)C)NC(=O)[C@H](CO)NC(=O)[C@H](C)NC(=O)[C@@H](NC(=O)[C@H](CC(C)C)NC(=O)[C@@H](N)CC(N)=O)CSSC[C@@H](C(=O)N[C@@H](CCCN=C(N)N)C(=O)N[C@@H](CCCCN)C(=O)N[C@@H](Cc2ccccc2)C(=O)NCC(=O)N[C@@H](CCCN=C(N)N)C(=O)N[C@@H](CCCN=C(N)N)C(=O)O)NC(=O)[C@H](CCC(N)=O)NC(=O)[C@@H]2CCCN2C1=O` [NLCASLRARHTIPQCRKFGRR] was tested. Which MIC [19] did it give?
A: 12.5 µM (≈ 31 µg/mL)

Q: And the MIC [20]?
A: ≥ 50 µM

Q: And the MIC [21]?
A: 12.5 µM (≈ 31 µg/mL)

Q: What about the MIC [22] of the same molecule?
A: 12.5 µM (≈ 31 µg/mL)

Q: What about the MIC [23] of the same molecule?
A: 12.5 µM (≈ 31 µg/mL)

Q: What about the MIC [24] of the same molecule?
A: 12.5 µM (≈ 31 µg/mL)

Q: What about the MIC [25] of the same molecule?
A: 25 µM (≈ 62 µg/mL)

Q: What about the MIC [26] of the same molecule?
A: 12.5 µM (≈ 31 µg/mL)

Q: What about the MIC [27] of the same molecule?
A: 12.5 µM (≈ 31 µg/mL)

Q: What about the MIC [28] of the same molecule?
A: 12.5 µM (≈ 31 µg/mL)

Q: What about the MIC [29] of the same molecule?
A: 25 µM (≈ 62 µg/mL)

Q: For `CC(C)[C@H](NC(=O)[C@H](CCCCN)NC(=O)[C@H](C)NC(=O)[C@@H](NC(=O)[C@@H](NC(=O)[C@H](CCCN=C(N)N)NC(=O)[C@H](CCCN=C(N)N)NC(=O)[C@H](Cc1c[nH]c2ccccc12)NC(=O)[C@H](C)NC(=O)CN)[C@@H](C)O)C(C)C)C(=O)N[C@@H](CCCN=C(N)N)C(=O)N[C@@H](CCCCN)C(N)=O` [GAWRRTVAKVRK], which MIC [16] is on record?
A: ≥ 100 µM

Q: And the MIC [17]?
A: 3.1 µM (≈ 4.42 µg/mL)

Q: And the MIC (Aureobasidium pullulans)?
A: ≥ 50 µM

Q: And the MIC [4]?
A: 200 µM (≈ 285 µg/mL)

Q: What about the MIC [18] of the same molecule?
A: 50 µM (≈ 71.3 µg/mL)

Q: And the MIC [6]?
A: 50 µM (≈ 71.3 µg/mL)

Q: What does the source list for `CC[C@H](C)[C@H](NC(=O)[C@H](C)NC(=O)[C@H](CCCN=C(N)N)NC(=O)[C@H](Cc1ccc(O)cc1)NC(=O)[C@H](CC(C)C)NC(=O)[C@H](CCCCN)NC(=O)[C@H](Cc1ccc(O)cc1)NC(=O)CNC(=O)[C@H](C)NC(=O)[C@H](CCCN=C(N)N)NC(=O)[C@@H](NC(=O)[C@H](Cc1c[nH]c2ccccc12)NC(=O)[C@H](CCCN=C(N)N)NC(=O)[C@@H](NC(=O)[C@@H](NC(=O)[C@@H](N)CC(C)C)C(C)C)[C@@H](C)CC)C(C)C)C(=O)N[C@@H](CCCCN)C(=O)N[C@@H](CCCCN)C(=O)N[C@@H](CCCCN)C(N)=O` [LVIRWVRAGYKLYRAIKKK]?
A: MIC [19]: 2 µM and 4 µM; MIC [20]: 2 µM (≈ 4.72 µg/mL); MIC [30]: 4 µM (≈ 9.44 µg/mL); MIC [21]: 2 µM (≈ 4.72 µg/mL); MIC [22]: 2 µM (≈ 4.72 µg/mL); MIC [23]: 4 µM (≈ 9.44 µg/mL); MIC [24]: 4 µM (≈ 9.44 µg/mL); MIC [25]: 4 µM (≈ 9.44 µg/mL); MIC [26]: 4 µM and 8 µM; MIC [27]: 8 µM (≈ 18.9 µg/mL); MIC [28]: 2 µM (≈ 4.72 µg/mL); MIC [29]: 2 µM (≈ 4.72 µg/mL)

Q: How did the MIC [7] turn out when `C[C@H](NC(=O)[C@H](CCCN=C(N)N)NC(=O)[C@H](Cc1c[nH]c2ccccc12)NC(=O)[C@H](CCCN=C(N)N)NC(=O)[C@H](Cc1c[nH]c2ccccc12)NC(=O)[C@H](Cc1c[nH]c2ccccc12)NC(=O)[C@H](Cc1c[nH]c2ccccc12)NC(=O)[C@H](CCCN=C(N)N)NC(=O)[C@H](Cc1c[nH]c2ccccc12)NC(=O)[C@H](CCCN=C(N)N)NC(=O)[C@@H](N)CO)C(N)=O` [SRWRWWWRWRA] was run?
A: 2 µM (≈ 3.46 µg/mL)

Q: What about the MIC [8] of the same molecule?
A: 4 µM (≈ 6.92 µg/mL)

Q: What about the MIC (Escherichia coli K88) of the same molecule?
A: 4 µM (≈ 6.92 µg/mL)

Q: And the MIC [1]?
A: 0.5 µM (≈ 0.866 µg/mL)

Q: What about the MIC (Escherichia coli 078) of the same molecule?
A: 2 µM (≈ 3.46 µg/mL)

Q: And the MIC (Escherichia coli UB1005)?
A: 1 µM (≈ 1.73 µg/mL)

Q: What about the MIC [9] of the same molecule?
A: 8 µM (≈ 13.8 µg/mL)

Q: And the MIC [10]?
A: 0.5 µM (≈ 0.866 µg/mL)

Q: And the MIC [3]?
A: 2 µM (≈ 3.46 µg/mL)

Q: What about the MIC [11] of the same molecule?
A: 1 µM (≈ 1.73 µg/mL)

Q: What about the MIC [4] of the same molecule?
A: 2 µM (≈ 3.46 µg/mL)

Q: What about the MIC (Escherichia coli K99) of the same molecule?
A: 1 µM (≈ 1.73 µg/mL)

Q: And the MIC [12]?
A: 4 µM (≈ 6.92 µg/mL)

Q: And the MIC (Acinetobacter baumannii)?
A: 2 µM (≈ 3.46 µg/mL)

Q: And the MIC [13]?
A: 2 µM (≈ 3.46 µg/mL)

Q: What about the MIC [14] of the same molecule?
A: 4 µM (≈ 6.92 µg/mL)

Q: What about the MIC [15] of the same molecule?
A: 4 µM (≈ 6.92 µg/mL)
